In patent US8685947B2, “Compositions and methods for loop diuretics with consistent bioavailability” (Brown University, priority 2010, dated 2014):

Test system: albino, male, Sprague-Dawley subjects
Experiment: Diuretic bioactivity analysis: urine output in metabolic cages after oral gelatin capsule dosing
Assay type: in vivo, rats
Conditions: 10 mg/kg oral
Method: Subject rats were weighed at the start of each example. Each formulation was prepared and then loaded into size 9 gelatin capsules using a gelatin capsule filler (Torpac, Fairfield, N.J.). Each gelatin capsule was weighed on a microbalance (AD-4 Autobalance, Perkin Elmer, Waltham, Mass.) prior to and after drug loading to prepare oral doses of 2.5 mg, 5 mg, or 10 mg of drug per kg of body mass within 0.5 mg of dose mass.
Each subject was anesthetized in an induction chamber with 3.5% isoflurane (Novation, Irving, Tex.) for 5-10 minutes. Once anesthetized, the subject was removed from the induction chamber and dosed with a size 9 gelatin capsule containing one of the furosemide formulations using the gelatin capsule dosing syringe (Torpac, Fairfield, N.J.). As a negative control the same subjects were administered empty gelatin capsules without furosemide to quantify the basal urine mass output for comparison. Upon recovery from anesthesia, each subject was then transferred to a metabolic cage for urine collection over a 10 hour period.
Twelve albino, male, Sprague-Dawley subjects (450 g to 750 g) were used as subjects in the bioactivity analysis example. Subjects were housed in standard bedded cages in accordance with NIH and IACUC guidelines. Immediately after oral gavage with a furosemide formulation, subjects were housed individually in a metabolic cage rack (Unifab Cages, Kalamazoo, Mich.) as shown in FIG. 2. Subjects were given access to food and water ad libitum throughout the study. Metabolic cages were equipped with wire grating floors that allowed for free passage and collection of excreted material during the period of containing the subject. Feces were collected beneath the large opening wire grating floor by smaller opening wire mesh screen, and urine continued through the screen into a funnel for collection into pre-weighed glass scintillation vials (Cole-Parmer, Vernon Hills, Ill.). At two hour intervals after dosing, the glass scintillation vials were weighed (Mettler Toledo, Columbus, Ohio) to quantify urine output as a function of time and were then replaced. Increased urine output above baseline values was used as a non-invasive measure of diuretic activity of the various furosemide formulations examined. After each 10 hour study, subjects were housed in bedded cages for a recovery period of at least 48 hours between metabolic cage studies.
Each dose was administered to three subjects and the average urine mass produced in the two hour time periods was determined and was compared to the average output of the same subjects that received a sham dosage without any furosemide, referred to in the figures as the basal output.

Structure (SMILES): NS(=O)(=O)c1cc(C(=O)O)c(NCc2ccco2)cc1Cl [stock furosemide, Furosemide]
- total urine output at hour 10 relative to the micronized dose (N=3, not significantly different): 1.02 fold
- mean urine mass output two hours after dosing relative to basal urine output (N=3, p<0.01): 12.2 fold
- mean urine mass output two hours after dosing relative to equivalent dose of micronized furosemide (N=3, p<0.01): 8.6 fold
- urine output two hours after oral dosing compared to micronized furosemide and basal control (N=3, p<0.01): statistically significant greater urine output
